Assay results as given in patent US9707281B2, “Pharmaceutical compositions and methods for digesting atherosclerotic plaques” (Northwestern University, priority 2010, dated 2017).

System: Human arterial plaque samples
Assay: in vitro dissolution and digestion of atherosclerotic plaque specimens (percent reduction of plaque weight)
Conditions: EDTA 0.5-2 mg/ml, β-cyclodextrin 1-100 mMol, tPA 0.5-2 mg/ml, p<0.05
Description: Atherosclerotic plaques from surgical endarterectomies were obtained from various anatomic sites. All experiments were performed by cutting a given plaque into equal parts by weight then exposing them to various agents alone and in combination to determine the most optimal digestion solution. The optimal concentration and conditions for plaque dissolution and digestion were determined for ethylenediaminetetraacetic acid (EDTA), β-cyclodextrin, tPA, collagenase type I, III, IV, and V. Weights of each specimen were obtained prior to exposure of each solution and at different time points to determine percent of digested versus undigested plaque. Additional variables that were assessed and optimized include: 1) different combinations of EDTA, β-cyclodextrin, and the collagenases, 2) temperature, 3) pH, and 4) agitation.
Atherosclerotic plaques were obtained from patients undergoing endarterectomies. The optimal concentration and conditions for plaque dissolution and digestion were determined for ethylenediaminetetraacetic acid (EDTA), β-cyclodextrin, and collagenase type I, III, IV, and V. Variables that were assessed included: 1) combination of different agents, 2) time, 3) temperature, 4) pH, and 5) agitation. Weight of each specimen was measured at different time points to determine percent of undigested plaque. […]

O=C(O)CN(CCN(CC(=O)O)CC(=O)O)CC(=O)O [EDTA, ethylenediaminetetraacetic acid]
reduction in plaque weight, agent alone: 15%

OC[C@H]1O[C@@H]2O[C@H]3[C@H](O)[C@@H](O)[C@@H](O[C@H]4[C@H](O)[C@@H](O)[C@@H](O[C@H]5[C@H](O)[C@@H](O)[C@@H](O[C@H]6[C@H](O)[C@@H](O)[C@@H](O[C@H]7[C@H](O)[C@@H](O)[C@@H](O[C@H]8[C@H](O)[C@@H](O)[C@@H](O[C@H]1[C@H](O)[C@H]2O)O[C@@H]8CO)O[C@@H]7CO)O[C@@H]6CO)O[C@@H]5CO)O[C@@H]4CO)O[C@@H]3CO [β-cyclodextrin]
reduction in plaque weight, agent alone: 2%
